Converted amounts (≈) assume the structure as drawn. Where two headings read alike, the source gives them in different places. Marks after values point to notes of the source that are not given here.
Key:
[1] = physchem; format: physicochemical; details: for solubility thermodynamic: 25 °C, thermodynamic from solid
Description: The maximum quantity of Compound I that can be completely dissolved at 25° C. in the several aqueous buffers and other solvents was evaluated using HPLC. […] Samples were injected with a 250 μg/ml nominal concentration. For samples of unknown concentration, dilutions were made to target the linear range of the method. All samples were quantified based on a linear standard curve. Measurements were performed by Pharmatek Laboratories, Inc. (San Diego, Calif.) with industry-standard quality controls.

[2] = 5 mg/g
[3] = tested on: rat; details: suspension in 0.5% of gum acacia in water or in propylene glycol, oral; cited from earlier work
[4] = Forced degradation: stability of Compound I formulations in selected solvents and Carrier A (HPLC); details: for Stability of the formulation in Carrier A (sesame oil), Purity: Carrier A (NF)
[5] = 10% HPβCD, 25° C./60% RH, t = 2 week

For CC1=CC(=O)c2c(O)cccc2C1=O [Compound I, 5-hydroxy-2-methylnaphthalene-1,4-dione], the “Solubility in Carrier A” value [1] was “well soluble”, the “Solubility in aqueous media” value [1] was “mostly insoluble” and the “Solubility in mixtures of triacylglycerols” value [1] was “good solubility”. The “Solubility in organic solvents” value [1] was “good solubility”, the solubility thermodynamic ([1]; pH 1, aqueous buffer) was 48 µg/mL (≈ 255 µM) and the solubility thermodynamic ([1]; pH 2, aqueous buffer) was 45 µg/mL (≈ 239 µM). The solubility thermodynamic ([1]; pH 3, aqueous buffer) was 49 µg/mL (≈ 260 µM), the solubility thermodynamic ([1]; pH 4, aqueous buffer) was 16 µg/mL (≈ 85 µM) and the solubility thermodynamic ([1]; pH 5, aqueous buffer) was 46 µg/mL (≈ 244 µM). The solubility thermodynamic ([1]; pH 6, aqueous buffer) was 44 µg/mL (≈ 234 µM), the solubility thermodynamic ([1]; pH 7, aqueous buffer) was 49 µg/mL (≈ 260 µM) and the solubility thermodynamic ([1]; pH 8, aqueous buffer) was 43 µg/mL (≈ 229 µM). It also gave a solubility thermodynamic ([1]; pH 9, aqueous buffer) of 75 µg/mL (≈ 399 µM), a solubility thermodynamic ([1]; pH 10, aqueous buffer) of 240 µg/mL (≈ 1280 µM) and a solubility thermodynamic ([1]; water) of 72 µg/mL (≈ 383 µM). For the same compound, the “Solution Stability in Aqueous Media, % Potency” value ([2]; 0 week) was 92.86%, the “Solution Stability in Aqueous Media, % Potency” value ([2]; 0 week, pH 1) was 99.62% and the “Solution Stability in Aqueous Media, % Potency” value ([2]; 0 week, pH 2) was 98.23%. For the same compound, the “Solution Stability in Aqueous Media, % Potency” value ([2]; 0 week, pH 3) was 96.53%, the “Solution Stability in Aqueous Media, % Potency” value ([2]; 0 week, pH 4) was 96.76% and the “Solution Stability in Aqueous Media, % Potency” value ([2]; 0 week, pH 5) was 97.34%. For the same compound, the “Solution Stability in Aqueous Media, % Potency” value ([2]; 0 week, pH 6) was 94.27%, the “Solution Stability in Aqueous Media, % Potency” value ([2]; 0 week, pH 7) was 87.84% and the “Solution Stability in Aqueous Media, % Potency” value ([2]; 0 week, pH 8) was 78.28%. The “Solution Stability in Aqueous Media, % Potency” value ([2]; 0 week, pH 9) was 85.90%, the “Solution Stability in Aqueous Media, % Potency” value ([2]; 0 week, pH 10) was 86.55% and the “Solution Stability in Aqueous Media, % Potency” value ([2]; 1 week, pH 7) was <10%. For the same compound, the “Solution Stability in Aqueous Media, % Potency” value ([2]; 1 week, pH 8) was <10%, the “Solution Stability in Aqueous Media, % Potency” value ([2]; 2 week, pH 7) was <10^‡ % and the “Solution Stability in Aqueous Media, % Potency” value ([2]; 2 week, pH 8) was <10^‡ %. The “Solution Stability in Aqueous Media, % Potency” value ([2]; 2 week, pH 9) was <10^‡ %, the “Solution Stability in Aqueous Media, % Potency” value ([2]; 2 week, pH 10) was <10^‡ % and the “Initial Compound I remaining in the solution” value ([2]; buffer, 168 h, pH 7) was “less than 10%”. For the same compound, the LD50 [3] was 65 mg/kg, the “Solution Stability in Selected Solvents, Purity” value ([4]; 1% TW20, 25° C./60% RH, t = 0) was 97.00 % Area and the “Solution Stability in Selected Solvents, Purity” value ([4]; 1% TW20, 25° C./60% RH, t = 1 week, precipitation observed) was 64.23^‡ % Area. For the same compound, the “Solution Stability in Selected Solvents, Purity” value ([4]; 1% TW20, 25° C./60% RH, t = 2 week, precipitation observed) was 50.47^‡ % Area, the “Solution Stability in Selected Solvents, Purity” value ([4]; 1% TW20, 40° C./75% RH, t = 1 week, precipitation observed) was 47.19^‡ % Area and the “Solution Stability in Selected Solvents, Purity” value ([4]; 1% TW20, 40° C./75% RH, t = 2 week, precipitation observed) was 41.25^‡ % Area. The “Solution Stability in Selected Solvents, Purity” value ([4]; 1% TW80, 25° C./60% RH, t = 0) was 95.11 % Area, the “Solution Stability in Selected Solvents, Purity” value ([4]; 1% TW80, 25° C./60% RH, t = 1 week, precipitation observed) was 57.32^‡ % Area and the “Solution Stability in Selected Solvents, Purity” value ([4]; 1% TW80, 25° C./60% RH, t = 2 week, precipitation observed) was 47.62^‡ % Area. The “Solution Stability in Selected Solvents, Purity” value ([4]; 1% TW80, 40° C./75% RH, t = 1 week, precipitation observed) was 42.07^‡ % Area, the “Solution Stability in Selected Solvents, Purity” value ([4]; 1% TW80, 40° C./75% RH, t = 2 week, precipitation observed) was 40.53^‡ % Area and the “Solution Stability in Selected Solvents, Purity” value ([4]; 10% HPβCD, 25° C./60% RH, t = 0) was 99.49 % Area. The “Solution Stability in Selected Solvents, Purity” value ([4]; 10% HPβCD, 25° C./60% RH, t = 1 week) was 97.41 % Area, the “Solution Stability in Selected Solvents, % Potency” value [4, 5] was 91.09% and the “Solution Stability in Selected Solvents, Purity” value [4, 5] was 94.73 % Area. For the same compound, the “Solution Stability in Selected Solvents, Purity” value ([4]; 10% HPβCD, 40° C./75% RH, t = 1 week) was 91.22 % Area, the “Solution Stability in Selected Solvents, Purity” value ([4]; 10% HPβCD, 40° C./75% RH, t = 2 week) was 87.69 % Area and the “Solution Stability in Selected Solvents, Purity” value ([4]; ACN, 25° C./60% RH, t = 0) was 95.56 % Area. For the same compound, the “Solution Stability in Selected Solvents, Purity” value ([4]; ACN, 25° C./60% RH, t = 1 week) was 93.35 % Area, the “Solution Stability in Selected Solvents, Purity” value ([4]; ACN, 25° C./60% RH, t = 2 week) was 91.03 % Area and the “Solution Stability in Selected Solvents, Purity” value ([4]; ACN, 40° C./75% RH, t = 1 week) was 93.33 % Area. For the same compound, the “Solution Stability in Selected Solvents, Purity” value ([4]; ACN, 40° C./75% RH, t = 2 week) was 93.59 % Area, the “Solution Stability in Selected Solvents, Purity” value ([4]; Acetone, 25° C./60% RH, t = 0) was 94.35 % Area and the “Solution Stability in Selected Solvents, Purity” value ([4]; Acetone, 25° C./60% RH, t = 1 week) was 93.49 % Area. For the same compound, the “Solution Stability in Selected Solvents, Purity” value ([4]; Acetone, 25° C./60% RH, t = 2 week) was 92.27 % Area, the “Solution Stability in Selected Solvents, Purity” value ([4]; Acetone, 40° C./75% RH, t = 1 week) was 91.94 % Area and the “Solution Stability in Selected Solvents, Purity” value ([4]; Acetone, 40° C./75% RH, t = 2 week) was 91.52 % Area. For the same compound, the “Stability of the formulation in Carrier A (sesame oil), Purity” value (from here on “Stability of the formulation”) ([4]; 25° C./60% RH, t = 3 day) was 99.2 Area - %, the “Stability of the formulation” value ([4]; 25° C./60% RH, t = 10 day) was 99.4 Area - % and the “Stability of the formulation” value ([4]; 40° C./75% RH, t = 3 day) was 98.9 Area - %. For the same compound, the “Stability of the formulation” value ([4]; 40° C./75% RH, t = 10 day) was 99.2 Area - %.
